Results reported in patent publication US9604987B2, “Synthesis of autophagy inducing compound and the uses thereof” (Hong Kong Baptist University, priority 2012, dated 2017).

How the values were obtained:
[1] = test system: α-syn (WT, A53T, A30P) in N2a cells; test: Clearance of over-expressed WT and mutant α-syn in N2a cells (western blot); type: cell-based, mouse
Protocol: (§1) Native and denatured PAGE and Western blotting analysis. Samples to be run under denaturing conditions were lysed with RIPA lysis buffer (150 mM NaCl, 50 mM Tris-HCl, 0.35% sodium deoxycholate, 1 mM EDTA, 1% NP40, 1 mM PMSF, 5 μg/ml aprotinin, 5 μg/ml leupeptin). Samples for native gels were lysed with detergent-free lysis buffer (50 mM Tris/HCl pH 7.4, 175 mM NaCl, 5 mM EDTA pH 8.0, 1 mM PMSF, 5 μg/ml aprotinin, 5 μg/ml leupeptin), and sheared 5 times through a 28-gauge needle followed by 2 times of sonication for 5 seconds according to previously described protocol. For denaturing, SDS-PAGE was performed using Tris-Glycine SDS running buffer and SDS sample buffer, and for native conditions, native-PAGE was run with detergent-free Tris-Glycine running buffer (BN2007, Invitrogen) and 4× native sample buffer (BN2003, Invitrogen) on a pre-casted native PAGE gel (BN1002BOX, Invitrogen). The proteins on the gels were then transferred to PVDF membrane (RPN303F, GE Healthcare) and processed for immunoblotting. Membranes were blocked with 5% non-fat milk and probed with the appropriate primary and secondary antibodies. The desired bands were visualized using the ECL kit (32106, Pierce). The band density was quantified using the ImageJ program and normalized to that of the control group.
N2a cells over-expressed in WT and α-syn mutants (A53T and A30P) and N2a cells with GFP as negative control are subjected to Cory B treatment for 24 hours. […] Data presents as the mean±SEM from 3 independent experiments (*p<0.05, one-way ANOVA for multiple comparison and Tukey's test as post hoc test).

[2] = test system: N2a Swedish APP cells; test: APP reduction in N2a Swedish APP cells (western blot); type: cell-based, mouse; conditions: different concentrations, with or without CQ and 3MA
Protocol: (§2) N2a Swedish APP cells are incubated with different concentration of Cory and Cory B in the presence or absence of CQ and 3MA. […] Tg2567 APP mice, 3 months old JNPL P301 Tau mice and WT mice intraperitoneally are administrated with 20 mg/kg/d CoryB.

[3] = test system: PC12 cells; test: Western blot of autophagy marker LC3-II in PC12 cells; type: cell-based, rat; conditions: PC12, 0-25 μM, 24 hours
Protocol: as §1, with “group. […]” for “group.”

[4] = test system: α-syn oligomers; test: BiFC-based cell model of α-syn oligomer clearance (flow cytometry); conditions: 25 μM, 24 hours
Protocol: Second, the effect of Cory B on α-syn oligomers clearance is tested using a bimolecular fluorescence complementation (BiFC)-based cell model which enables visualization of α-syn oligomers. Two non-fluorescent fragments of GFP, GFP-N terminal fraction and GFP-C terminal fraction, are fused with α-syn protein; interaction of the two fragments reconstitutes the fluorophore (FIG. 5G). The presence of fluorescence signal indicates the formation of α-syn oligomers within cells. Mock transfected cells are used as blanks to gate the fluorescence-positive cells and signals stronger than 10^1 RFU are considered as positive α-syn oligomers formation. Cells are treated with 25 μM Cory B and/or 5 mM 3-MA for 24 hours and harvested for flow cytometry analysis.

[5] = test system: Tg2567 APP mice; test: Tg2567 APP mice treated intraperitoneally; type: in vivo; conditions: 20 mg/kg/d intraperitoneally, three months
Protocol: as §2

CC[C@@H]1CN2CC[C@]3(C(=O)Nc4ccccc43)C2C[C@@H]1C(=COC)C(=O)OC (stereo partly shown) [Cory B, Corynoxine B]
α-syn pro-clearance activity under 3-MA and CQ ([1]; 5 mM 3-MA and 30 μM CQ): abolish pro-clearance activity
WT and mutant α-syn levels ([1]; N2a over-expressing WT, A53T, A30P α-syn, 24 hours): reduces WT and mutant α-syn levels in a dose-dependent manner
GFP levels (negative control protein) ([1]; N2a with GFP, 24 hours): does not reduce GFP levels
full length and CTF APP [2]: dose-dependently reduce both full length and CTF APP
LC3-II levels [3]: increases levels of LC3-II
degradation of α-syn oligomers (fluorescence intensity) [4]: promotes degradation of α-syn oligomers
Fl-APP/CTF [5]: significantly decrease
